Read-outs that look alike come from different tables or passages of the source.
Columns and labels:
KPC-2 [1] = target: T1, KPC-2 (Klebsiella pneumoniae, UniProt Q9F663); assay: β-lactamase acylation exchange (intact protein mass spectrometry); type: binding; conditions: donor KPC-2, acceptor OXA-48, 19 h, ambient temperature
T1 construct: made in house
Method: (§1) β-Lactamase acylation exchange experiments and intact protein mass spectrometry were performed as described previously.[10] OXA-48 was used as the acceptor enzyme in most cases because of the stability of the ETX1317–OXA-48 complex. When OXA-48 was the donor enzyme, CTX-M-15 was used as the acceptor. Each β-lactamase (5 μM) was incubated with or without 25 μM ETX1317 in a 60 μL volume of 50 mM HEPES (pH 7.0) buffer for 1 h at ambient temperature. The samples were diluted to 400 μL with ice-cold buffer and then concentrated to ∼40 μL with Microcon YM-10 centrifugal ultrafilters (Millipore-Sigma, Burlington, MA) at 14 000g for 45 min at 4 °C. The retentates were rediluted to 400 μL with ice-cold buffer and reconcentrated as before. This was repeated a further time, leaving no significant amount of unbound ETX1317. The sample volumes were restored to 60 μL with ice-cold buffer and the samples were divided into two equal aliquots of 30 μL. Buffer (6 μL) was added to one aliquot, and 6 μL of acceptor enzyme was added to the other. The final acceptor enzyme concentrations were 5 μM. Samples were incubated at ambient temperature for the times indicated and then stored at −80 °C until analysis. LC-MS analysis was performed on a Triple TOF5600+ (AB Sciex, Redwood City, CA) equipped with a DuoSpray Ion Source and a Shimadzu LC 20-AD HPLC system (Shimadzu Scientific Instruments, Marlborough, MA). A 2 μL portion of each sample was injected onto a Poroshell 300SB-C8 75 × 2.1 mm, 5 μm column (Agilent) at 30 °C with a gradient of acetonitrile (5–95%) in 0.1% formic acid for 3 min followed by a 1 min hold at 95% before returning to 5% acetonitrile at a flow rate of 0.4 mL/min. The mass spectrometer was operated in positive ion and intact protein mode with source temperature of 450 °C. LC-MS data were acquired in the TOF MS mode for m/z+ from 600 to 2000. Nebulizer gas (GS1), heater gas (GS2), and curtain gas were set at 60, 70, and 30 psi, respectively. Ion spray voltage was 5500 V. Declustering voltage was 100 V, and collision energy was 10 V. Peak masses for protein species were determined following spectrum deconvolution using PeakView version 2.2 software. Mass accuracy of intact proteins is ±1 Da.

CTX-M-15 [2] = target: T2, CTX-M-15 (Escherichia coli, UniProt Q9EXV5); assay: as above; type: binding; conditions: donor CTX-M-15, acceptor OXA-48, ambient temperature
T2 construct: made in house
T2 sequence (Q9EXV5 29-291, species assumed): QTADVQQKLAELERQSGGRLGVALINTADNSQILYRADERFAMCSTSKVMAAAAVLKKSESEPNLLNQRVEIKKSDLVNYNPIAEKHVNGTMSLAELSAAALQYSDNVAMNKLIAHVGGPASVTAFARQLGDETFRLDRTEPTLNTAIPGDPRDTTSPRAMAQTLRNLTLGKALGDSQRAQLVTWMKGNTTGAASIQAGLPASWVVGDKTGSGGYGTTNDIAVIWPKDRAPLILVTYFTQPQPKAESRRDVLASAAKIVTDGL
Method: as §1

OXA-48 [3] = target: T3, OXA-48 (Klebsiella pneumoniae, UniProt Q6XEC0); assay: as above; type: binding; conditions: donor OXA-48, acceptor CTX-M-15, 19 h, ambient temperature, no added bicarbonate
T3 construct: made in house
T3 sequence (Q6XEC0 23-265, looked up, species assumed): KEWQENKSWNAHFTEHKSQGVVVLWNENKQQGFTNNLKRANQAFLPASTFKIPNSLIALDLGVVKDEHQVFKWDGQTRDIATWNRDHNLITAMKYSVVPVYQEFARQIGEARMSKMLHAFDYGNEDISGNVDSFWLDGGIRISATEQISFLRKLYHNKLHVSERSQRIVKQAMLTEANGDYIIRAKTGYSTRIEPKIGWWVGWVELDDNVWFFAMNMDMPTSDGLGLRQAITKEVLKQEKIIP
Method: as §1

[4] = target: T4, Pseudomonas aeruginosa AmpC (Pseudomonas aeruginosa, UniProt P24735); assay: as above; type: binding; conditions: acceptor OXA-48, 1, 2 and 17 h, ambient temperature
T4 construct: made in house
T4 sequence (P24735 27-397): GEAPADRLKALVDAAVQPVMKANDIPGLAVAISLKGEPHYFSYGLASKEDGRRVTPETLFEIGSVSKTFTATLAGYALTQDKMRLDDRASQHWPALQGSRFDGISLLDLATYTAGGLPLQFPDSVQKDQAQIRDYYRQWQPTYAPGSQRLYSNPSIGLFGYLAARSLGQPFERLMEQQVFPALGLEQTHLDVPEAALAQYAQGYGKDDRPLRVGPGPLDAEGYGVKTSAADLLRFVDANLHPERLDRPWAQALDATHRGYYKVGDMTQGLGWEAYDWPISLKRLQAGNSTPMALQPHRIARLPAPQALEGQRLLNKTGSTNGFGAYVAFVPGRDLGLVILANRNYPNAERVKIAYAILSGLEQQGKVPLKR
Method: as §1

TEM-1 [5] = target: T5, TEM-1 (Escherichia coli, UniProt P62593); assay: as above; type: binding; conditions: donor TEM-1, acceptor OXA-48, ambient temperature
T5 construct: made in house
T5 sequence (P62593 24-286 limits assumed): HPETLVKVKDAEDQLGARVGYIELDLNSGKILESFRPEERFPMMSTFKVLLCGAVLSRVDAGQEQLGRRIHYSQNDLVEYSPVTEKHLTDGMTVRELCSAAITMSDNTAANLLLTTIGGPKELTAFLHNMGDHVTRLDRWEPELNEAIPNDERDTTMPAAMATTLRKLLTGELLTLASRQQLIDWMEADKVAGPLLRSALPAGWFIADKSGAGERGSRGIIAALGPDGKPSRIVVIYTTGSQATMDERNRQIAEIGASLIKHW
Method: as §1

SHV-5 [6] = target: T6, SHV-5 (Klebsiella pneumoniae, UniProt P0A3M1); assay: as above; type: binding; conditions: donor SHV-5, acceptor OXA-48, ambient temperature
T6 construct: made in house
T6 sequence (P0A3M1 22-286, species assumed): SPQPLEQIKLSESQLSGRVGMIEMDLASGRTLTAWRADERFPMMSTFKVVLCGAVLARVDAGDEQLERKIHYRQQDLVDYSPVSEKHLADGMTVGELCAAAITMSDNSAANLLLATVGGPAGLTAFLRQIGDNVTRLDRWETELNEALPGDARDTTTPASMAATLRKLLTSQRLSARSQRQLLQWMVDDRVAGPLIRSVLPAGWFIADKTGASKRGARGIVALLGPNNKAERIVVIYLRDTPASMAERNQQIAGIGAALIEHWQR
Method: as §1

Enterobacter cloacae P99 = target: T7, Enterobacter cloacae P99 (Enterobacter cloacae, UniProt P05364); assay: as above; type: binding; conditions: donor P99, acceptor OXA-48, ambient temperature
T7 construct: made in house
T7 sequence (P05364 21-381): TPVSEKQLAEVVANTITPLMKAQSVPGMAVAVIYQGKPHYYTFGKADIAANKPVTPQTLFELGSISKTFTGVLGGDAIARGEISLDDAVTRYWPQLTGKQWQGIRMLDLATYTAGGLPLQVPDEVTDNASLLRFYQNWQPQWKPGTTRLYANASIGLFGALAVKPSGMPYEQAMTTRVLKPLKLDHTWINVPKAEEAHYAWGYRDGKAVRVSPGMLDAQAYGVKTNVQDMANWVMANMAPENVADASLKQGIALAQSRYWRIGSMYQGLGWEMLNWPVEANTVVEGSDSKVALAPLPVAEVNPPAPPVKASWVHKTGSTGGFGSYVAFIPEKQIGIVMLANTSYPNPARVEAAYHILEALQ
Method: as §1

KPC-2 [7] = target: T1, KPC-2; assay: Partition ratio measurement; type: biochemical
Method: (§2) Partition ratios were measured as described previously[10] at ambient temperature in Buffer A. ETX1317 was freshly dissolved in assay buffer and an arithmetic dilution series was prepared from 0 to 12 μM in 1.2 μM steps. Each of these was mixed with an equal volume of 6 μM β-lactamase. At each time point, the mixtures were diluted in buffer to 2-fold the final reaction concentration of enzyme. Then, 22.5 μL of enzyme + inhibitor solutions were mixed with 22.5 μL of 200 μM nitrocefin substrate in a clear polystyrene 384-well assay plate. The absorbance at 490 nm was monitored at 10-s intervals for 10 min with a Spectramax Plus 384 plate reader. The slopes of the progress curves (ΔA490/s) were calculated. The percent of the control value for each inhibitor concentration was plotted versus the inhibitor:enzyme molar ratio. A best-fit line was calculated with a fixed point at 100% on the y-axis.

CTX-M-15 [8] = target: T2, CTX-M-15; assay: Partition ratio measurement; type: biochemical; conditions: CTX-M-15, incubation 1 h, ambient temperature
Method: as §2

OXA-48 [9] = target: T3, OXA-48; assay: Partition ratio measurement; type: biochemical; conditions: OXA-48, incubation 1 h, ambient temperature
Method: as §2

SHV-5 [10] = target: T6, SHV-5; assay: Partition ratio measurement; type: biochemical; conditions: SHV-5, incubation 1 h, ambient temperature
Method: as §2

AmpC = target: T8, AmpC (Pseudomonas aeruginosa, UniProt P24735); assay: Partition ratio measurement; type: biochemical; conditions: incubation 1 h, ambient temperature
T8 construct: made in house
T8 sequence (P24735 27-397): as the sequence (P24735 27-397) above
Method: as §2

TEM-1 [11] = target: T5, TEM-1; set-up: method as in PMID 28665414, PMID 32658473; conditions: ref 6 and 7, cited from earlier work; for kinact/Ki: TEM-1, ambient temperature, pH 7.0, nitrocefin
CTX-M-14 = test system: CTX-M-14; set-up: method as in PMID 32658473; conditions: higher than that of avibactam; cited from earlier work
OXA-24 = conditions: OXA-24, ambient temperature, pH 7.0, nitrocefin; ref 6 and 7; cited from earlier work
KPC-2 [12] = target: T1, KPC-2; conditions: KPC-2, ambient temperature, pH 7.0, nitrocefin; ref 6 and 7; cited from earlier work
CTX-M-15 [13] = target: T2, CTX-M-15; conditions: CTX-M-15, ambient temperature, pH 7.0, nitrocefin; ref 6 and 7; cited from earlier work
P. aeruginosa AmpC [14] = target: T9, P. aeruginosa AmpC (Pseudomonas aeruginosa, UniProt P24735); conditions: ambient temperature, pH 7.0, nitrocefin, ref 6 and 7; cited from earlier work
T9 construct: made in house
T9 sequence (P24735 27-397): as above

E. cloacae P99 [15] = target: T10, E. cloacae P99 (Enterobacter cloacae, UniProt P05364); conditions: cited from earlier work
T10 construct: made in house
T10 sequence (P05364 21-381): as the sequence (P05364 21-381) above

P. aeruginosa AmpC [16] = target: T9, P. aeruginosa AmpC; assay: koff measurement by jump dilution; type: biochemical; conditions: ambient temperature
Method: (§3) Dissociation rate constants (koff) were measured by the jump-dilution method at ambient temperature as described previously.[10] Enzymes at 500 000-fold the final β-lactamase assay concentration (see above) were incubated for 15–20 min with 3-fold molar excess of freshly dissolved ETX1317 at ambient temperature in Buffer A. The mixtures were then diluted 250 000-fold with Buffer A, and 22.5 μL of the dilutions was mixed with 22.5 μL of 200 μM nitrocefin in Buffer A. The absorbance at 490 nm was monitored at 30 s intervals for 2 h at ambient temperature with a Spectramax Plus 384 plate reader. Progress curves were fit by nonlinear regression using XLfit (ID Business Solutions, Boston, MA) to the following equation: [drawing 2] where P is A490, C is the initial A490, V0 is the initial rate of absorbance increase, Vs is the final rate of absorbance increase, t is time in seconds, and k is the first order rate constant for enzyme reactivation due to inhibitor dissociation, koff.

KPC-2 [17] = target: T1, KPC-2; assay: koff measurement by jump dilution; type: biochemical; conditions: KPC-2, jump dilution, ambient temperature
Method: as §3

CTX-M-15 [18] = target: T2, CTX-M-15; assay: koff measurement by jump dilution; type: biochemical; conditions: CTX-M-15, jump dilution, ambient temperature
Method: as §3

TEM-1 [19] = target: T5, TEM-1; assay: koff measurement by jump dilution; type: biochemical; conditions: TEM-1, jump dilution, ambient temperature
Method: as §3

SHV-5 [20] = target: T6, SHV-5; assay: koff measurement by jump dilution; type: biochemical; conditions: SHV-5, jump dilution, ambient temperature
Method: as §3

E. cloacae P99 [21] = target: T10, E. cloacae P99; assay: koff measurement by jump dilution; type: biochemical; conditions: ambient temperature
Method: as §3

OXA-48 [22] = target: T3, OXA-48; conditions: OXA-48, ambient temperature, pH 7.0, nitrocefin; ref 6 and 7; cited from earlier work
OXA-10 = conditions: OXA-10, ambient temperature, pH 7.0, nitrocefin; ref 6 and 7; cited from earlier work
SHV-5 [23] = target: T6, SHV-5; conditions: SHV-5, ambient temperature, pH 7.0, nitrocefin; ref 6 and 7; cited from earlier work
SHV-5 [24] = target: T6, SHV-5; set-up: method as in PMID 28835096; conditions: cited from earlier work
CTX-M-15 [25] = target: T2, CTX-M-15; conditions: cited from earlier work
OXA-48 [26] = target: T3, OXA-48; conditions: OXA-48, 37 °C, discontinuous jump dilution method covering 6 h; cited from earlier work
KPC-2 [27] = target: T1, KPC-2; conditions: cited from earlier work
E. cloacae P99 [28] = target: T10, E. cloacae P99; conditions: cited from earlier work; remark: listed apart in the source
TEM-1 [29] = target: T5, TEM-1; conditions: cited from earlier work
OXA-23 = conditions: OXA-23, ambient temperature, pH 7.0, nitrocefin; ref 6 and 7; cited from earlier work
P. aeruginosa AmpC [30] = target: T9, P. aeruginosa AmpC; conditions: cited from earlier work
[31] = E. cloacae P99, ambient temperature, pH 7.0, nitrocefin, ref 6 and 7

T1 sequence (Q9F663 25-293, looked up, species assumed): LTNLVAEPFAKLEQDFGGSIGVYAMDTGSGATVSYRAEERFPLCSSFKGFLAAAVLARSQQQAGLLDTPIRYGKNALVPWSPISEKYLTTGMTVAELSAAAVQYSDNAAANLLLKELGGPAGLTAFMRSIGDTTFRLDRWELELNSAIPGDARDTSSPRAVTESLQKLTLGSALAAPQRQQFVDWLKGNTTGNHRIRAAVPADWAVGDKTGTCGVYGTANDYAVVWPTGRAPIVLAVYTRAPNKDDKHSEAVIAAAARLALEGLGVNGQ

CC1=C[C@@H](C(N)=O)N2C[C@@H]1N(O[C@H](F)C(=O)O)C2=O [ETX1317]
acylation exchange (recyclization and dissociation of intact inhibitor) from donor to acceptor enzyme (KPC-2 [1]): observed | acylation exchange (recyclization and dissociation of intact inhibitor) from donor to acceptor enzyme (CTX-M-15 [2]): observed | acylation exchange (recyclization and dissociation of intact inhibitor) from donor to acceptor enzyme (OXA-48 [3]): lack of acylation exchange | acylation exchange (recyclization and dissociation of intact inhibitor) from donor to acceptor enzyme [4]: observed | acylation exchange (recyclization and dissociation of intact inhibitor) from donor to acceptor enzyme (TEM-1 [5]): observed | acylation exchange (recyclization and dissociation of intact inhibitor) from donor to acceptor enzyme (SHV-5 [6]): observed | acylation exchange (recyclization and dissociation of intact inhibitor) from donor to acceptor enzyme (Enterobacter cloacae P99): observed | partition ratio (KPC-2 [7]; KPC-2, 15 min incubation (not shown)): 1.1 | partition ratio (KPC-2 [7]; KPC-2, incubation of enzyme and inhibitor 3 h, ambient temperature): 1.1 | partition ratio (CTX-M-15 [8]): 0.7 | partition ratio (OXA-48 [9]): 1.1 | partition ratio (SHV-5 [10]): 0.9 | partition ratio (AmpC): 1.0 | Ki (TEM-1 [11]; TEM-1, equilibrium dissociation constant, inhibition not time-dependent on 30 s time scale): 340 pM | potency of CTX-M-14 inhibition relative to avibactam (CTX-M-14): about 10 fold | kinact/Ki (OXA-24): 4.6 (±0.2) × 10^3 M^–1 s^–1 | kinact/Ki (KPC-2 [12]): 4.9 (±0.2) × 10^4 M^–1 s^–1 | kinact/Ki (CTX-M-15 [13]): 4.8 (±0.4) × 10^6 M^–1 s^–1 | kinact/Ki (P. aeruginosa AmpC [14]): 1.20 (±0.04) × 10^4 M^–1 s^–1 | kinact/Ki (E. cloacae P99 [15]; [31]): 3.9 (±0.2) × 10^4 M^–1 s^–1 | koff (P. aeruginosa AmpC [16]): 0.0006 s⁻¹ | koff (KPC-2 [17]): 0.00052 s⁻¹ | koff (CTX-M-15 [18]): 0.00013 s⁻¹ | koff (TEM-1 [19]): 0.008 s⁻¹ | koff (SHV-5 [20]): 0.002 s⁻¹ | koff (E. cloacae P99 [21]): 9.2e-05 s⁻¹ | kinact/Ki (OXA-48 [22]): 5.3 (±0.2) × 10^4 M^–1 s^–1

NC(=O)[C@@H]1CC[C@@H]2CN1C(=O)N2OS(=O)(=O)O [avibactam]
kinact/Ki (TEM-1 [11]): 4 × 10^5 M^–1 s^–1 | kinact/Ki (OXA-10): 70 M^–1 s^–1 | kinact/Ki (SHV-5 [23]): 1 × 10^5 M^–1 s^–1 | kinact/Ki (OXA-24): 80 M^–1 s^–1 | kinact/Ki (KPC-2 [12]): 6 × 10^3 M^–1 s^–1 | kinact/Ki (CTX-M-15 [13]): 8 × 10^5 M^–1 s^–1 | kinact/Ki (P. aeruginosa AmpC [14]): 3 × 10^3 M^–1 s^–1 | kinact/Ki (E. cloacae P99 [15]; pH 7): 8 × 10^3 M^–1 s^–1 | kinact/Ki (OXA-48 [22]): 5 × 10^3 M^–1 s^–1

CC1=C[C@@H]2CN(C(=O)N2OS(=O)(=O)O)[C@@H]1C(N)=O [durlobactam]
koff (SHV-5 [24]): 5.5 (±0.3) × 10^–4 s^–1 | koff (CTX-M-15 [25]): 2.2 (±0.5) × 10^–4 s^–1 | koff (OXA-48 [26]): 2.5 (±0.3) × 10^–5 s^–1 | koff (KPC-2 [27]): 1.0 (±0.1) × 10^–3 s^–1 | kinact/Ki (TEM-1 [11]): 1.4 (±0.6) × 10^7 M^–1 s^–1 | kinact/Ki (OXA-10): 9 (±2) × 10^3 M^–1 s^–1 | kinact/Ki (SHV-5 [23]): 6.4 (±0.5) × 10^6 M^–1 s^–1 | kinact/Ki (OXA-24): 9 (±2) × 10^3 M^–1 s^–1 | kinact/Ki (KPC-2 [12]): 9.3 (±0.6) × 10^5 M^–1 s^–1 | koff (E. cloacae P99 [28]): 3.4 (±0.5) × 10^–4 s^–1 | kinact/Ki (CTX-M-15 [13]): 7 (±2) × 10^6 M^–1 s^–1 | kinact/Ki (P. aeruginosa AmpC [14]): 9 (±5) × 10^5 M^–1 s^–1 | kinact/Ki (E. cloacae P99 [15]; [31]): 2.3 (±0.4) × 10^6 M^–1 s^–1 | koff (TEM-1 [29]): 1.4 (±0.2) × 10^–3 s^–1 | kinact/Ki (OXA-23): 5.1 (±0.2) × 10^3 M^–1 s^–1 | koff (P. aeruginosa AmpC [30]): 4 (±1) × 10^–3 s^–1 | kinact/Ki (OXA-48 [22]): 8 (±2) × 10^5 M^–1 s^–1
